{"source": "paper PMC7408493", "about": "“Implication of Opioid Receptors in the Antihypertensive Effect of a Novel Chicken Foot-Derived Peptide” (Biomolecules, 2020)", "key": {"porcine pepsin": {"target": "T1, porcine pepsin (Sus scrofa, UniProt P00791)", "T1 construct": "purchased Sigma-Aldrich (Madrid, Spain)", "T1 sequence (P00791 60-385)": "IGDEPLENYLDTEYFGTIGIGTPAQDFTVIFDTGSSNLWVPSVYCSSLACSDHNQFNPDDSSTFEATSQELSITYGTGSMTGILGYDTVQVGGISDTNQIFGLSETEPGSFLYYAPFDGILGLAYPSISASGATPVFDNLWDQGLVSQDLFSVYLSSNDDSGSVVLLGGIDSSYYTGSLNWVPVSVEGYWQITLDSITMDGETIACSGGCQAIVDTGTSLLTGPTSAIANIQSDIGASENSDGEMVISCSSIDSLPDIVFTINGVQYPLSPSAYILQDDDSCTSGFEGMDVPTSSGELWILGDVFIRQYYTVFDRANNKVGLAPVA", "experiment": "In vitro simulated gastric digestion (G60)", "assay_type": "in vitro ADME", "conditions": "60 min", "experimental": "For the in vitro simulated peptide GI digestion, a two-stage hydrolysis process was carried out according to Martos et al.. […] was dissolved in simulated gastric fluid (35 mM NaCl at pH 2 for 15 min) and posteriorly subjected to digestion by porcine pepsin (E.C. 3.4.23.1, 3440 units/mg) at an enzyme/substrate ratio of 1: 20 w/w at 37 °C for 60 min. Gastric digestion with pepsin was stopped by adding 1 M NaHCO3 and pH was adjusted to 7.0 with NaOH 1 M (final protein concentration of 5 mg/mL). Aliquots of this gastric digest were collected (G60) and stored at −20 °C until analysis. Duodenal digestions were performed by using, as the starting material, the obtained gastric digests, with the addition of 1 M CaCl2, 0.25 M bis-Tris pH 6.5, 0.25 M bis-Tris pH 6.5, and a 0.125 M bile salts mixture containing equimolar quantities of sodium taurocholate and glycodeoxycholic acid. Posteriorly, the duodenal enzymes trypsin (EC 232-650-8, 10100 BAEE units/mg protein), α-chymotrypsin (EC 232-671-2; 55 units/mg protein), porcine pancreatic lipase (EC 232-619-9) and colipase (EC 259-490-1), prepared in 35 mM NaCl adjusted to pH 7, were added to the solution. Duodenal digestion was carried out at pH 7, 37 °C during 60 (D60). Then, enzymes were inactivated by heating at 95 °C for 10 min in a water bath, followed by cooling to room temperature. Triplicates of aliquots at each time point were collected and stored at −20 °C until analysis.\nSamples obtained from in vitro peptide simulated digestion and Caco-2 monolayers were diluted 10 times with water (0.1% FA) and centrifuged (15,000 rpm, 15 min, 4 °C). Supernatants were directly analyzed by UHPLC-HRMS to avoid the loss of polar peptide fragments. Extensive clean-up or pre-concentration procedures were not necessary due to the high concentration of peptide and low matrix complexity than plasma samples.\nThe obtained purified solutions from plasma and peptide digests G60 and D60 and from AP and BL chambers in Caco-2 experiment were analyzed using a UHPLC 1290 Infinity II Series coupled to a QqQ 6490 Series (Agilent Technologies, Santa Clara, CA, USA) for tandem mass experiments or a qTOF 6550 Series (Agilent Technologies) for high-resolution mass spectrometry experiments. Chromatographic separation of peptide or their fragments were performed using a Kinetex 2.6 µm EVO C18 column (150 × 2.1 mm, […]) from (Phenomenex, Torrance, USA) as stationary phase and water containing 0.1% formic acid (solvent A) and acetonitrile (solvent B) as mobile phase. The separation was performed in gradient elution as follows: isocratic; 0–0.5 min, 2 % B; 0.5–1 min, 2–6% B; 1–5 min, 6–15% B; 5–6 min, 15–35% B; 6–10 min, 35–98% B; 10–12 min, 98% B isocratic; 12–12.10, 98–2% B. For all runs, 10 μL of the sample (4 °C) was injected, and the flow rate was 0.350 mL/min and the column temperature was 25 °C.\nFor in vitro simulated digestion experiments and Caco-2 monolayer samples, qTOF instrument was used to investigate the presence of unknown peptide fragments and previously in silico predicted peptide fragments by means of its accurate mass. Peptide and its fragments were semi-quantified using the chromatographic peak area observed in the extracted ion chromatograms using a 20 ppm mass window."}, "[1]": {"experiment": "Peptide presence in plasma after oral administration", "assay_type": "in vivo", "conditions": "Wistar rats, 10 mg/kg bw oral, plasma at 0, 30 and 60 min, pooled n = 6, SPE extraction, UHPLC-MS/MS (limit of detection 0.05 ppb) and UHPLC-HRMS", "experimental": "Male Wistar rats (17–20 weeks-old, weighing between 230 and 250 g) were obtained from Charles River Laboratories (Barcelona, Spain). Animals were maintained in pairs, at 22 °C with light/dark cycles of 12 h and were fed standard chow diet (AO4, Panlab, Barcelona, Spain) ad libitum during all the experiment. Animals were randomly divided and administered tap water (control group, n = 6) or 10 mg/kg body weight (bw) peptide ([…] group, n = 6) by gastric intubation after starvation of 12 h. The total volume of water or […] orally administered to the rats was 1 mL. […]\nSolid-phase extraction (SPE): Plasma samples (150 µL) were mixed with 25 µL of IFV*[…] […] Eluted samples were dried in a speed-vac concentrator (Thermo Fisher, Waltham, Massachusetts), USA), reconstituted in 100 µL of water (0.1 % FA and 0.1 % BSA), and analyzed by UHPLC-MS/MS. […]\nThe obtained purified solutions from plasma and peptide digests G60 and D60 and from AP and BL chambers in Caco-2 experiment were analyzed using a UHPLC 1290 Infinity II Series coupled to a QqQ 6490 Series (Agilent Technologies, Santa Clara, CA, USA) for tandem mass experiments or a qTOF 6550 Series (Agilent Technologies) for high-resolution mass spectrometry experiments. […]"}}, "note": "Ends that are not written are not given here.", "data": [{"sequence": "AVFQHNCQE", "values": [{"measurement": "Resistance to gastric digestion", "setting": "porcine pepsin; pepsin, pH 2, 37 °C, most intense signal in G60 was the native peptide", "result": "resistant to gastric digestion"}, {"measurement": "Area G60 (chromatographic peak area)", "setting": "porcine pepsin; simulated gastric fluid 35 mM NaCl pH 2, porcine pepsin enzyme/substrate 1:20 w/w, 37 °C, UHPLC-HRMS extracted ion chromatogram, 20 ppm window, semi-quantified, triplicate aliquots", "result": "5,236,186"}, {"measurement": "Presence of peptide or fragments in plasma", "setting": "[1]", "result": "neither the peptide nor their potential fragments were identified in the plasma samples"}]}]}
